In PMC8881610 (Nature Communications, 2022):
Residue numbers refer to the chain shown, from its start.

Key:
Assay in all cases: Whole-cell binding assay, competition with 125I-GIP1-42
Design in all cases: acylated tirzepatide to the full-length or modified; Flag; expressed in transfected cells
GIPR [1] = target: T1, GIPR (Homo sapiens, UniProt P48546, D191A); details: GIPR D191A, CHO-K1
T1 sequence (P48546 22-466 D191A): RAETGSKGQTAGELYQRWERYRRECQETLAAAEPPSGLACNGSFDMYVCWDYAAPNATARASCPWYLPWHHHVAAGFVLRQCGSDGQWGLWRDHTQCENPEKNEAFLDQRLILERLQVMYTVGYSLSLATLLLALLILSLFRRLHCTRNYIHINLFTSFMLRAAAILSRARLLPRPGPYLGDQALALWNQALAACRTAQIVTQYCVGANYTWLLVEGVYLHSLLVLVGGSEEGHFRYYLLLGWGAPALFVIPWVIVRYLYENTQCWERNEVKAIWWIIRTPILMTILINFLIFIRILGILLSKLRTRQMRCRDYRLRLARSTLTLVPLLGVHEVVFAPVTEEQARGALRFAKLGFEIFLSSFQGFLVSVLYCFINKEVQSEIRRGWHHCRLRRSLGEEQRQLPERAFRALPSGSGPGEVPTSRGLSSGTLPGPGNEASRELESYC
In short: (§1)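 Transiently transfected CHO-K1 cells expressing WT or mutant GIPR were washed in F-12 with 0.1% BSA or 0.1% casein and 33 mM HEPES, then incubated 2 h at 37 °C. After ice-cold PBS washes, cells were lysed and bound radioactivity counted (CPM).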

GIPR [2] = target: T2, GIPR (Homo sapiens, UniProt P48546, W90A); details: GIPR W90A, CHO-K1
T2 sequence (P48546 22-466 W90A): T1 sequence (P48546 22-466 D191A) with W69A, A170D
In short: as §1

GIPR [3] = target: T3, GIPR (Homo sapiens, UniProt P48546, R370A); details: GIPR R370A, CHO-K1
T3 sequence (P48546 22-466 R370A): T1 sequence (P48546 22-466 D191A) with A170D, R349A
In short: as §1

GIPR [4] = target: T4, GIPR (Homo sapiens, UniProt P48546, Y141A); details: GIPR Y141A, CHO-K1
T4 sequence (P48546 22-466 Y141A): T1 sequence (P48546 22-466 D191A) with Y120A, A170D
In short: as §1

[5] = read-out: binding pIC50 (converted)

Row | SMILES | binding Span (GIPR [1]) [% WT] | IC50 (GIPR [1]; [5]) [nM] | binding Span (GIPR [2]) [% WT] | IC50 (GIPR [2]; [5]) [nM] | binding Span (GIPR [3]) [% WT] | IC50 (GIPR [3]; [5]) [nM] | binding Span (GIPR [4]) [% WT] | IC50 (GIPR [4]; [5]) [nM] | binding pIC50 (GIPR [1]) | binding pIC50 (GIPR [2]) | binding pIC50 (GIPR [3]) | binding pIC50 (GIPR [4])
1 | CCCCCCCCCCCCCCCC(=O)N[C@@H](CCC(=O)NCCCC[C@H](NC(=O)[C@H](CC(=O)O)NC(=O)[C@H](CO)NC(=O)[C@@H](NC(=O)[C@H](Cc1ccccc1)NC(=O)[C@@H](NC(=O)CNC(=O)[C@H](CCC(N)=O)NC(=O)C(C)(C)NC(=O)[C@@H](N)Cc1c[nH]cn1)[C@@H](C)O)[C@@H](C)O)C(=O)N[C@@H](CO)C(=O)N[C@@H](CCCCN)C(=O)N[C@@H](Cc1ccc(O)cc1)C(=O)N[C@@H](CC(C)C)C(=O)N[C@@H](CC(=O)O)C(=O)N[C@@H](CCC(=O)O)C(=O)N[C@@H](CCCNC(=N)N)C(=O)N[C@@H](C)C(=O)N[C@@H](C)C(=O)N[C@@H](CCC(N)=O)C(=O)N[C@@H](CC(=O)O)C(=O)N[C@@H](Cc1ccccc1)C(=O)N[C@H](C(=O)N[C@@H](CCC(N)=O)C(=O)N[C@@H](Cc1c[nH]c2ccccc12)C(=O)N[C@@H](CC(C)C)C(=O)N[C@@H](CC(C)C)C(=O)N[C@@H](CC(=O)O)C(=O)NCC(=O)NCC(=O)N1CCC[C@H]1C(=O)N[C@@H](CO)C(=O)N[C@@H](CO)C(=O)NCC(=O)N[C@@H](C)C(=O)N1CCC[C@H]1C(=O)N1CCC[C@H]1C(=O)N1CCC[C@H]1C(=O)N[C@@H](CO)C(N)=O)C(C)C)C(=O)O [Peptide 20] | 12.29 ± 1.02 | 9.12 | 3.87 ± 1.12 | 2.69 | 22.84 ± 2.01 | 5.62 | 14.88 ± 1.95 | 2.4 | – | – | – | –
2 | CC[C@H](C)[C@H](NC(=O)[C@H](CC(C)C)NC(=O)[C@H](Cc1c[nH]c2ccccc12)NC(=O)[C@H](CCC(N)=O)NC(=O)[C@@H](NC(=O)[C@H](Cc1ccccc1)NC(=O)[C@H](C)NC(=O)[C@H](CCCCNC(=O)COCCOCCNC(=O)COCCOCCNC(=O)CC[C@H](NC(=O)CCCCCCCCCCCCCCCCCCC(=O)O)C(=O)O)NC(=O)[C@H](CCC(N)=O)NC(=O)[C@H](C)NC(=O)[C@@H](NC(=O)[C@H](CCCCN)NC(=O)[C@H](CC(=O)O)NC(=O)[C@H](CC(C)C)NC(=O)C(C)(C)NC(=O)[C@@H](NC(=O)[C@H](CO)NC(=O)[C@H](Cc1ccc(O)cc1)NC(=O)[C@H](CC(=O)O)NC(=O)[C@H](CO)NC(=O)[C@@H](NC(=O)[C@H](Cc1ccccc1)NC(=O)[C@@H](NC(=O)CNC(=O)[C@H](CCC(=O)O)NC(=O)C(C)(C)NC(=O)[C@@H](N)Cc1ccc(O)cc1)[C@@H](C)O)[C@@H](C)O)[C@@H](C)CC)[C@@H](C)CC)C(C)C)C(=O)N[C@@H](C)C(=O)NCC(=O)NCC(=O)N1CCC[C@H]1C(=O)N[C@@H](CO)C(=O)N[C@@H](CO)C(=O)NCC(=O)N[C@@H](C)C(=O)N1CCC[C@H]1C(=O)N1CCC[C@H]1C(=O)N1CCC[C@H]1C(=O)N[C@@H](CO)C(N)=O [Tirzepatide] | – | – | – | – | 10.40 ± 2.67 | – | – | – | N.B. | N.B. | N.B. | N.B.
